The values that follow come from patent US20220370416A1, “COMPOUNDS AND METHODS FOR TARGETED DEGRADATION OF KRAS” (Arvinas Operations, Inc., priority 2020, published 2022).

The target of experiment [1] is T1, HiBit-KRAS^G12C (Homo sapiens, UniProt P01116, G12C). The experiment is described as follows: HiBit degradation assay in SW1573 HiBit-KRas^G12C cells. The format is cell-based. Set-up: expressed in transfected cells; host or cells: SW1573 (clone E6), modified pcDNA3.1 vector, TK promoter. Conditions: 0.5% DMSO, 24 hours; for Dmax: SW1573, SW1573 HiBit-KRas^G12C, read-out: KRas^G12C-HiBiT (SW1573; 0.5% DMSO) Dmax**; for DC50: read-out: KRas^G12C-HiBiT (SW1573; 0.5% DMSO) IC50***, SW1573 HiBit-KRas^G12C. The essentials:
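SW1573 cells stably expressing N-terminally HiBit-tagged KRAS G12C, under the TK promoter, were treated 24 h at 37 °C with 10 μM to 20 nM compound in 0.1% or 0.5% DMSO. Residual HiBit luminescence normalised to DMSO and fitted with a 4-parameter model for DC50 and Dmax. Points with ≥50% viability loss (alamar blue) excluded.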

The target in experiment [2] is T1, HiBit-KRAS^G12C. Nature of the experiment: HiBit degradation assay in MiaPaCa-2 HiBit-KRas^G12C cells. The format is cell-based. Conditions: 0.5% DMSO, 24 hours; for Dmax: MIA PaCa-2, MiaPaCa-2 HiBit-KRas^G12C cells, maximum degradation, read-out: KRas^G12C-HiBiT (MiaPaCa; 0.5% DMSO) DMax; for DC50: read-out: KRas^G12C-HiBiT (MiaPaCa; 0.5% DMSO) IC50, MiaPaCa-2 HiBit-KRas^G12C cells. The essentials: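 MiaPaCa-2 cells with CRISPR N-terminal HiBit knock-in on one endogenous KRAS^G12C allele, treated 24 hours at 37° C with compound titrated 10 μM to 20 nM (0.1% or 0.5% DMSO). Lytic HiBit luminescence normalized to DMSO, 4-parameter fit giving DC50 and Dmax; points cytotoxic to […] cells by alamar blue excluded.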

T1 sequence (P01116 1-186 isoform P01116-2 G12C limits assumed): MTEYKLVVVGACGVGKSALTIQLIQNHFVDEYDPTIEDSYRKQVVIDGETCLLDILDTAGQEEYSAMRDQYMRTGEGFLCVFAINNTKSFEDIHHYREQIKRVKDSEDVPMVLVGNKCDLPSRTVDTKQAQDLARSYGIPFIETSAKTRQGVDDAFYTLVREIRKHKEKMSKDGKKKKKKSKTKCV

Take `C=C(F)C(=O)N1CCN(c2nc(OCCN3CCC(C)(COc4cc([C@H](C(=O)N5C[C@H](O)C[C@H]5C(=O)N[C@@H](C)c5ccc(-c6scnc6C)cc5)C(C)C)on4)CC3)nc3c(F)c(-c4cc(O)cc5ccccc45)c(Cl)cc23)C[C@@H]1CC#N` (atropisomer, axis not shown) [Compound 123, (2S,4R)-1-[(2R)-2-[3-({1-[2-({6-chloro-4-[(3S)-3-(cyanomethyl)-4-(2-fluoroprop-2-enoyl)piperazin-1-yl]-8-fluoro-7-(3-hydroxynaphthalen-1-yl)quinazolin-2-yl}oxy)ethyl]-4-methylpiperidin-4-yl}methoxy)-1,2-oxazol-5-yl]-3-methylbutanoyl]-4-hydroxy-N-[(1S)-1-[4-(4-methyl-1,3-thiazol-5-yl)phenyl]ethyl]pyrrolidine-2-carboxamide]: in experiment [1], the Dmax is above 70% and the DC50 was below 0.1 µM. Besides, in experiment [2], the Dmax was above 70% and the DC50 is below 0.1 µM.
For the compound `C=C(F)C(=O)N1CCN(c2nc(OCCN3CCC(C)(COc4cc([C@H](C(=O)N5C[C@H](O)C[C@H]5C(=O)N[C@@H](C)c5ccc(-c6ccnn6C)cc5)C(C)C)on4)CC3)nc3c(F)c(-c4cc(O)cc5ccccc45)c(Cl)cc23)C[C@@H]1CC#N` (atropisomer, axis not shown) [Compound 124, (2S,4R)-1-[(2R)-2-[3-({1-[2-({6-chloro-4-[(3S)-3-(cyanomethyl)-4-(2-fluoroprop-2-enoyl)piperazin-1-yl]-8-fluoro-7-(3-hydroxynaphthalen-1-yl)quinazolin-2-yl}oxy)ethyl]-4-methylpiperidin-4-yl}methoxy)-1,2-oxazol-5-yl]-3-methylbutanoyl]-4-hydroxy-N-[(1S)-1-[4-(1-methyl-1H-pyrazol-5-yl)phenyl]ethyl]pyrrolidine-2-carboxamide], the Dmax in experiment [1] and in experiment [2] was 35 to 70% throughout. The DC50 in experiment [1] and in experiment [2] was below 0.1 µM each time.
On to `C=C(F)C(=O)N1CCN(c2nc(OCCN3CCC(C)(COc4cc([C@@H](C(=O)N5C[C@H](O)C[C@H]5C(=O)N[C@@H](C)c5ccc(-c6ccnn6C)cc5)C(C)C)on4)CC3)nc3c(F)c(-c4cc(O)cc5ccccc45)c(Cl)cc23)C[C@@H]1CC#N` (atropisomer, axis not shown) [Compound 125, (2S,4R)-1-[(2S)-2-[3-({1-[2-({6-chloro-4-[(3S)-3-(cyanomethyl)-4-(2-fluoroprop-2-enoyl)piperazin-1-yl]-8-fluoro-7-(3-hydroxynaphthalen-1-yl)quinazolin-2-yl}oxy)ethyl]-4-methylpiperidin-4-yl}methoxy)-1,2-oxazol-5-yl]-3-methylbutanoyl]-4-hydroxy-N-[(1S)-1-[4-(1-methyl-1H-pyrazol-5-yl)phenyl]ethyl]pyrrolidine-2-carboxamide], for which the values for the DC50 in experiment [1] and in experiment [2] were 0.1 to 1 µM and above 1 µM, respectively.
As to `C=C(F)C(=O)N1CCN(c2nc(OCCN3CCC(C)(COc4cc([C@@H](C(=O)N5C[C@H](O)C[C@H]5C(=O)N[C@@H](C)c5ccc(-c6scnc6C)cc5)C(C)C)on4)CC3)nc3c(F)c(-c4cc(O)cc5ccccc45)c(Cl)cc23)C[C@@H]1CC#N` (atropisomer, axis not shown) [Compound 126, (2S,4R)-1-[(2S)-2-[3-({1-[2-({6-chloro-4-[(3S)-3-(cyanomethyl)-4-(2-fluoroprop-2-enoyl)piperazin-1-yl]-8-fluoro-7-(3-hydroxynaphthalen-1-yl)quinazolin-2-yl}oxy)ethyl]-4-methylpiperidin-4-yl}methoxy)-1,2-oxazol-5-yl]-3-methylbutanoyl]-4-hydroxy-N-[(1S)-1-[4-(4-methyl-1,3-thiazol-5-yl)phenyl]ethyl]pyrrolidine-2-carboxamide], the DC50 in experiment [1] and in experiment [2] was above 1 µM throughout.
For `C=C(F)C(=O)N1CCN(c2nc(OCCN3CCC(COCC(=O)N[C@H](C(=O)N4C[C@H](O)C[C@H]4C(=O)N[C@@H](C)c4ccc(-c5ccnn5C)cc4)C(C)(C)C)CC3)nc3c(F)c(-c4cc(O)cc5ccccc45)c(Cl)cc23)C[C@@H]1CC#N` (atropisomer, axis not shown) [Compound 129, (2S,4R)-1-[(2S)-2-[2-({1-[2-({6-chloro-4-[(3S)-3-(cyanomethyl)-4-(2-fluoroprop-2-enoyl)piperazin-1-yl]-8-fluoro-7-(3-hydroxynaphthalen-1-yl)quinazolin-2-yl}oxy)ethyl]piperidin-4-yl}methoxy)acetamido]-3,3-dimethylbutanoyl]-4-hydroxy-N-[(1S)-1-[4-(1-methyl-1H-pyrazol-5-yl)phenyl]ethyl]pyrrolidine-2-carboxamide], in experiment [1], the Dmax is above 70% and the DC50 was in the range of 0.1 to 1 µM. In experiment [2], the Dmax is above 70% and the DC50 was in the range of 0.1 to 1 µM.
On to `C=CC(=O)N1CCN(c2nc(OCCN3CCC(COCC(=O)N[C@H](C(=O)N4C[C@H](O)C[C@H]4C(=O)N[C@@H](C)c4ccc(-c5ccnn5C)cc4)C(C)(C)C)CC3)nc3c(F)c(-c4cc(O)cc5ccccc45)c(Cl)cc23)C[C@@H]1CC#N` (atropisomer, axis not shown) [Compound 136, (2S,4R)-1-[(2S)-2-[2-({1-[2-({6-chloro-4-[(3S)-3-(cyanomethyl)-4-(prop-2-enoyl)piperazin-1-yl]-8-fluoro-7-(3-hydroxynaphthalen-1-yl)quinazolin-2-yl}oxy)ethyl]piperidin-4-yl}methoxy)acetamido]-3,3-dimethylbutanoyl]-4-hydroxy-N-[(1S)-1-[4-(1-methyl-1H-pyrazol-5-yl)phenyl]ethyl]pyrrolidine-2-carboxamide], for which, in experiment [1], the Dmax is above 70% and the DC50 was 0.1 to 1 µM. Moreover, in experiment [2], the Dmax is above 70% and the DC50 fell in the range of 0.1 to 1 µM.
In the case of `C=CC(=O)N1CCN(c2nc(OCCN3CCC(COc4cc([C@H](C(=O)N5C[C@H](O)C[C@H]5C(=O)N[C@@H](C)c5ccc(-c6ccnn6C)cc5)C(C)C)on4)CC3)nc3c(F)c(-c4cc(O)cc5ccccc45)c(Cl)cc23)C[C@@H]1CC#N` (atropisomer, axis not shown) [Compound 138, (2S,4R)-1-[(2R)-2-[3-({1-[2-({6-chloro-4-[(3S)-3-(cyanomethyl)-4-(prop-2-enoyl)piperazin-1-yl]-8-fluoro-7-(3-hydroxynaphthalen-1-yl)quinazolin-2-yl}oxy)ethyl]-piperidin-4-yl}methoxy)-1,2-oxazol-5-yl]-3-methylbutanoyl]-4-hydroxy-N-[(1S)-1-[4-(1-methyl-1H-pyrazol-5-yl)phenyl]ethyl]pyrrolidine-2-carboxamide], the Dmax in experiment [1] and in experiment [2] was above 70% each time. In addition, the DC50 was below 0.1 µM in experiment [1] and 0.1 to 1 µM in experiment [2].
In the case of `C=C(F)C(=O)N1CCN(c2nc(OCCN3CCC(COc4cc([C@H](C(=O)N5C[C@H](O)C[C@H]5C(=O)N[C@@H](C)c5ccc(-c6ccnn6C)cc5)C(C)C)on4)CC3)nc3c(F)c(-c4cc(O)cc5ccccc45)c(Cl)cc23)C[C@@H]1CC#N` (atropisomer, axis not shown) [Compound 141, (2S,4R)-1-[(2R)-2-[3-({1-[2-({6-chloro-4-[(3S)-3-(cyanomethyl)-4-(2-fluoroprop-2-enoyl)piperazin-1-yl]-8-fluoro-7-(3-hydroxynaphthalen-1-yl)quinazolin-2-yl}oxy)ethyl]-piperidin-4-yl}methoxy)-1,2-oxazol-5-yl]-3-methylbutanoyl]-4-hydroxy-N-[(1S)-1-[4-(1-methyl-1H-pyrazol-5-yl)phenyl]ethyl]pyrrolidine-2-carboxamide], in experiment [1], the Dmax was above 70% and the DC50 is below 0.1 µM. In experiment [2], the Dmax is above 70% and the DC50 fell in the range of 0.1 to 1 µM.
Turning to `C=CC(=O)N1CCN(c2nc(OCCN3CCC(COc4cc([C@H](C(=O)N5C[C@H](O)C[C@H]5C(=O)N[C@@H](C)c5ccc(-c6scnc6C)cc5)C(C)C)on4)CC3)nc3c(F)c(-c4cc(O)cc5ccccc45)c(Cl)cc23)CC1` (atropisomer, axis not shown) [Compound 146, (2S,4R)-1-[(2R)-2-(3-{[1-(2-{[6-chloro-8-fluoro-7-(3-hydroxynaphthalen-1-yl)-4-[4-(prop-2-enoyl)piperazin-1-yl]quinazolin-2-yl]oxy}ethyl)piperidin-4-yl]methoxy}-1,2-oxazol-5-yl)-3-methylbutanoyl]-4-hydroxy-N-[(1S)-1-[4-(4-methyl-1,3-thiazol-5-yl)phenyl]ethyl]pyrrolidine-2-carboxamide], the DC50 in experiment [1] and in experiment [2] was above 1 µM each time. The Dmax in experiment [2] lay in the range of 35 to 70%.
